Patent publication US10512656B2, “Compositions and methods for the treatment of lysosomal storage disorders and disorders characterized by lysosomal dysfunction” (Baylor College of Medicine, priority 2016, dated 2019)

System: Cln3^Δex7-8 mice
Assay: Hot plate test (pain sensitivity)
Assay type: in vivo, mouse
Settings: six-month-old Cln3^Δex7-8 mice, 50° C. surface
Text: FIG. 1. Amelioration of disease pathology in JNCL mice fed with trehalose. […] Treated (Tre) Cln3^Δex7-8 mice: n=13. Untreated (UT) Cln3^4ex7-8 mice: n=12. (b) Weight of brains from 12-month-old WT and Cln3^Δex7-8 mice with or without trehalose treatment. All groups of mice, n=4 or 5. (c) Fractional anisotropy of brains from 12-month-old WT and Cln3^Δex7-8 mice with or without trehalose treatment. Left panel: representative coronal images of the four groups of brains; corpus callosa are indicated by the yellow arrowhead. Right panel: quantification of callosal volume. All groups of mice, n=3 or 4. Scale bar, […]. Three-dimensional reconstructions of the corpus callosum in mice from treated and control groups are reported in Supplementary Movies 1-4. (d) In the hot plate test, Cln3^Δex7-8 mice respond slower when placed on a 50° C. heated metal surface compared with wild-type (WT) littermates, indicating reduced pain sensitivity. Trehalose (Tre) treatment rescued this phenotype in Cln3^Δex7-8 mice. All groups of mice, n=14-19. Data represent means±s.e.m. *P<0.05, **P<0.01, ***P<0.001.

OC[C@H]1O[C@H](O[C@H]2O[C@H](CO)[C@@H](O)[C@H](O)[C@H]2O)[C@H](O)[C@@H](O)[C@@H]1O [trehalose, a-D-glucopyranosyl a-D-glucopyranoside]
pain sensitivity in hot plate assay: fully restored
